Key:
[1] = tested on: DLD-1; assay: Cytotoxicity against human DLD1 cells; assay type: functional, cell-based
[2] = tested on: MES-SA; assay: Fold resistant ratio of IC50 for MES-SA/Dx5-Rx1 cells to IC50 for human MES-SA cells
[3] = Cytotoxicity against human MES-SA/Dx5-Rx1 cells; assay type: functional, cell-based
[4] = tested on: HCT-15; assay: Cytotoxicity against human HCT15 cells; assay type: functional, cell-based
[5] = Cytotoxicity against human MES-SA cells; assay type: functional, cell-based

SMILES | IC50 [1] [pM] | Ratio IC50 [2] | IC50 [3] [pM] | IC50 [4] [pM] | IC50 [5] [pM]
C=CCN(C)C[C@H](C[C@H]1O[C@H]2C[C@H]3O[C@@H](CC[C@@H]4O[C@@H](CC[C@@]56C[C@H]7O[C@H]8[C@@H](O5)[C@H]5O[C@H](CC[C@@H]5O[C@H]8[C@H]7O6)CC(=O)C[C@@H]2[C@H]1OC)CC4=C)C[C@@H](C)C3=C)OC | 230 | 29.4 | 1950 | 220 | 70
C=C(C)CN(CC)CC[C@H]1O[C@H]2C[C@H]3O[C@@H](CC[C@@H]4O[C@@H](CC[C@@]56C[C@H]7O[C@H]8[C@@H](O5)[C@H]5O[C@H](CC[C@@H]5O[C@H]8[C@H]7O6)CC(=O)C[C@@H]2[C@H]1OC)CC4=C)C[C@@H](C)C3=C | 610 | – | – | 460 | –
C=C1C[C@@H]2CC[C@@]34C[C@H]5O[C@H]6[C@@H](O3)[C@H]3O[C@H](CC[C@@H]3O[C@H]6[C@H]5O4)CC(=O)C[C@@H]3[C@@H](OC)[C@@H](CCN)O[C@H]3C[C@H]3O[C@@H](CC[C@@H]1O2)C[C@@H](C)C3=C | 4670 | 288.17 | 47600 | 8570 | 170
C#CCN(CC#C)CC[C@H]1O[C@H]2C[C@H]3O[C@@H](CC[C@@H]4O[C@@H](CC[C@@]56C[C@H]7O[C@H]8[C@@H](O5)[C@H]5O[C@H](CC[C@@H]5O[C@H]8[C@H]7O6)CC(=O)C[C@@H]2[C@H]1OC)CC4=C)C[C@@H](C)C3=C | 1420 | 5.65 | 3990 | 890 | 690
C=C1C[C@@H]2CC[C@@]34C[C@H]5O[C@H]6[C@@H](O3)[C@H]3O[C@H](CC[C@@H]3O[C@H]6[C@H]5O4)CC(=O)C[C@@H]3[C@@H](OC)[C@@H](C[C@@H](CN4CC4C)OC)O[C@H]3C[C@H]3O[C@@H](CC[C@@H]1O2)C[C@@H](C)C3=C (stereo partly drawn) | 290 | 19.91 | 2550 | 400 | 130
C#CCN(C)C[C@H](C[C@H]1O[C@H]2C[C@H]3O[C@@H](CC[C@@H]4O[C@@H](CC[C@@]56C[C@H]7O[C@H]8[C@@H](O5)[C@H]5O[C@H](CC[C@@H]5O[C@H]8[C@H]7O6)CC(=O)C[C@@H]2[C@H]1OC)CC4=C)C[C@@H](C)C3=C)OC | 310 | – | – | 190 | –
C=C1C[C@@H]2CC[C@@]34C[C@H]5O[C@H]6[C@@H](O3)[C@H]3O[C@H](CC[C@@H]3O[C@H]6[C@H]5O4)CC(=O)C[C@@H]3[C@@H](OC)[C@@H](CCN4CCOCC4)O[C@H]3C[C@H]3O[C@@H](CC[C@@H]1O2)C[C@@H](C)C3=C | 230 | – | – | 160 | –
C=C1C[C@@H]2CC[C@@]34C[C@H]5O[C@H]6[C@@H](O3)[C@H]3O[C@H](CC[C@@H]3O[C@H]6[C@H]5O4)CC(=O)C[C@@H]3[C@@H](OC)[C@@H](C[C@@H](CNCC(=O)OCCCC)OC)O[C@H]3C[C@H]3O[C@@H](CC[C@@H]1O2)C[C@@H](C)C3=C | 580 | 5.83 | 1600 | 370 | 280
C=C(C)CN(CC)C[C@H](C[C@H]1O[C@H]2C[C@H]3O[C@@H](CC[C@@H]4O[C@@H](CC[C@@]56C[C@H]7O[C@H]8[C@@H](O5)[C@H]5O[C@H](CC[C@@H]5O[C@H]8[C@H]7O6)CC(=O)C[C@@H]2[C@H]1OC)CC4=C)C[C@@H](C)C3=C)OC | 510 | – | – | 340 | –
C=C1C[C@@H]2CC[C@@]34C[C@H]5O[C@H]6[C@@H](O3)[C@H]3O[C@H](CC[C@@H]3O[C@H]6[C@H]5O4)CC(=O)C[C@@H]3[C@@H](OC)[C@@H](C[C@H](O)CN4CCOCC4)O[C@H]3C[C@H]3O[C@@H](CC[C@@H]1O2)C[C@@H](C)C3=C | 310 | 49.82 | 7260 | 360 | 150
C#CCN(CC#C)C[C@H](C[C@H]1O[C@H]2C[C@H]3O[C@@H](CC[C@@H]4O[C@@H](CC[C@@]56C[C@H]7O[C@H]8[C@@H](O5)[C@H]5O[C@H](CC[C@@H]5O[C@H]8[C@H]7O6)CC(=O)C[C@@H]2[C@H]1OC)CC4=C)C[C@@H](C)C3=C)OC | 280 | 3.99 | 530 | 170 | 130
C=CCN(CC=C)CC[C@H]1O[C@H]2C[C@H]3O[C@@H](CC[C@@H]4O[C@@H](CC[C@@]56C[C@H]7O[C@H]8[C@@H](O5)[C@H]5O[C@H](CC[C@@H]5O[C@H]8[C@H]7O6)CC(=O)C[C@@H]2[C@H]1OC)CC4=C)C[C@@H](C)C3=C | 310 | 6.57 | 1150 | 210 | 170
C=C1C[C@@H]2CC[C@@]34C[C@H]5O[C@H]6[C@@H](O3)[C@H]3O[C@H](CC[C@@H]3O[C@H]6[C@H]5O4)CC(=O)C[C@@H]3[C@@H](OC)[C@@H](C[C@@H](CN4CCN(S(=O)(=O)c5ccc(C)cc5)CC4)OC)O[C@H]3C[C@H]3O[C@@H](CC[C@@H]1O2)C[C@@H](C)C3=C | 990 | 12.35 | 39100 | 620 | 3160
C=C1C[C@@H]2CC[C@@]34C[C@H]5O[C@H]6[C@@H](O3)[C@H]3O[C@H](CC[C@@H]3O[C@H]6[C@H]5O4)CC(=O)C[C@@H]3[C@@H](OC)[C@@H](C[C@@H](CN4CCN(C(=O)OCC)CC4)OC)O[C@H]3C[C@H]3O[C@@H](CC[C@@H]1O2)C[C@@H](C)C3=C | – | 38.1 | 3050 | – | 80
C=C1C[C@@H]2CC[C@@]34C[C@H]5O[C@H]6[C@@H](O3)[C@H]3O[C@H](CC[C@@H]3O[C@H]6[C@H]5O4)CC(=O)C[C@@H]3[C@@H](OC)[C@@H](CCN4CCC(C(F)(F)F)CC4)O[C@H]3C[C@H]3O[C@@H](CC[C@@H]1O2)C[C@@H](C)C3=C | 220 | – | – | 140 | –

Source: ChEMBL document CHEMBL1681747, “Novel second generation analogs of eribulin. Part II: Orally available and active against resistant tumors in vivo” (Bioorg Med Chem Lett, 2011)
